Data on one compound can be found in patent US9695219B2, “Polypeptide having antibacterial activity and angiogenesis-inducing activity and wound-healing drug containing said polypeptide” (priority 2009, dated 2017).

Where a SMILES comes first, the peptide text is derived from it. [ ]: non-standard residue; d: D form.

One test concerns Escherichia coli. The test can be described thus: MIC measurement, broth microdilution. It is filed as cell-based. The note with it: 37° C. for 20 hours; tested twice, first/second value where not matched. The method, then: (§1) Further, with respect to not only the above-described strains but also various other strains, the “minimum inhibitory concentration (MIC)” was measured as follows. MIC is the lowest concentration of an agent that may inhibit the growth of a bacterium. MIC is used as a parameter for the efficacy of an antibacterial agent, for the strength of bacterial sensitivity, or the like. The bacteria can grow (proliferate) when the concentration is not higher than MIC, and cannot grow when the concentration is higher than MIC. Its measurement is carried out according to a method defined as a standard method by Japanese Society of Chemotherapy or CLINICAL AND LABORATORY […] (CLSI), but, in this Example, its measurement was carried out by a broth microdilution method in accordance with “M100-S17/M7-A7” (Performance Standards for Antimicrobial Susceptibility Testing; Seventeenth Informational Supplement, Vol. 27 No. 1) published by CLSI on January, 2007. That is, sensitivity test of agents was carried out using a microtiter plate or test tubes.
(§2) The bacteria were cultured in liquid media for 4 to 6 hours, and thereafter absorbances at A600 were measured. Bacterial suspensions were diluted with Mueller-Hinton broth (MHB) according to McFarland #0.5. Each strain was added so as to attain about 10^5 CFU/ml (final concentration). Each peptide was prepared to an optional concentration, and the solutions were serially diluted from the concentration. The polypeptide at each concentration stage was added to a microplate or test tubes, and the bacterial suspension was added thereto. Chloramphenicol, amphotericin B, ciprofloxacin, meropenem (MEPM), ciprofloxacin (CPFX), tobramycin (TOB) and oxacillin (OX) were used as positive controls. The plate was incubated at 37° C. for 20 hours, and the lowest concentration where bacterial growth was inhibited was regarded as the minimum inhibitory concentration.
(Dilution methods test growth across graded concentrations, often in twofold steps.)

Test [1] has as its system Staphylococcus epidermidis. The test can be described thus: MIC measurement, broth microdilution. The test is classed as cell-based. The conditions noted are these: 37° C. for 20 hours; tested twice, first/second value where not matched. The method, then: as §1, §2
For test [2], the system named is human vascular endothelial cells and fibroblast cells. The test can be described thus: Lumen formation test, areas of formed lumina (Angiogenesis Kit KZ-1000). The test is classed as cell-based. The conditions noted are these: 0.5, 2.5 and 10 μg/mL, Day 11 of culture. As to the method: Then, in order to examine the angiogenesis activity of these, lumen formation by the polypeptides was evaluated using an angiogenesis kit available from KURABO […] LTD. (Product No.: KZ-1000). Vascular endothelial growth factor (VEGF) as a positive control, and polypeptide-free, unstimulated group as a negative control, were used.
Using a special medium for angiogenesis which was attached to the kit, each polypeptide was prepared such that the concentration thereof was respectively 0.5, 2.5 and 10 μg/mL. To a 24-well plate in which cells were plated (the cells were those obtained by co-culturing human vascular endothelial cells and fibroblast cells at an optimum concentration) which was attached to the kit, the special medium for angiogenesis containing each polypeptide was added, and the cells were cultured at 37° C. under 5% CO2. The medium was replaced with a medium containing the same additive on Day 4, Day 7 and Day 9 of culture. […]
Each of the obtained images was quantified using an angiogenesis quantification software. The areas of formed lumina observed in each visual field were measured on the basis of the scale of an angiogenesis quantification software available from KURABO […] […] (angiogenesis quantification software Ver 1.0), and evaluated on the basis of the ratio of the areas of polypeptide-containing groups relative to the area of the negative control group.

The subject of test [3] is diabetes full-thickness defect flap model, hairless rats. The test can be described thus: Effect to heal diabetic skin ulcers in diabetes flap model. It is filed as in vivo, rat. The note with it: 0.2 μg/μL. As to the method:
For the purpose of producing a diabetes model, 7-week old male hairless rats (HWY/slc) were used, and, on the day before full-thickness defect flaps were created, the blood sugar level was measured and streptozotocin was administered once in tail vein (65 mg/kg). The full-thickness defect flap model was produced by measuring the blood sugar level of the rats on the day after the administration of streptozotocin and deciding only the individuals whose blood sugar level was not less than 300 mg/dL as the diabetes model. The full-thickness defect flaps were created by first creating on the back of each rat a pedicle flap of 2×2 cm (square) whose basal part was on its tail side, and then creating a full-thickness defect site (including dermal layer defect) of 1.4×1.4 cm (square: about 2 cm^2) in the central part of the created pedicle flap. Then, the flap sites were immediately sutured to obtain the full-thickness defect flap model. The model is a model of a diabetic intractable wound or skin ulcer, since the model also lacks dermal layer. […] Thereafter, on every measurement day, the test substance was administered once a day; the change of the area of the wound was calculated by measured values from a digital caliper and digital images; and the area where the wounds had still not healed was measured to calculate the ratio of it relative to the area where the wounds were created (Day 0).

For test [4], the system named is Pseudomonas aeruginosa (clinical strain 6). The test can be described thus: MIC measurement, broth microdilution. It is filed as cell-based. The note with it: 37° C. for 20 hours; tested twice, first/second value where not matched.
In the next test the test system is Salmonella typhimurium. The test can be described thus: microbe, parasite or virus in culture. It is filed as cell-based. The conditions noted are these: 37° C. for 20 hours; tested twice, first/second value where not matched. In a few lines: (§3)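 Following CLSI broth microdilution guidance, peptides were serially diluted and challenged with about 10^5 CFU/ml in Mueller-Hinton broth. The MIC was defined as the lowest concentration without growth at 20 h, 37° C.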

Another test deals with Clostridium ramosum. The test can be described thus: microbe, parasite or virus in culture. The test is classed as cell-based. The conditions noted are these: 37° C. for 20 hours; tested twice, first/second value where not matched. In a few lines: as §3
A further test relates to Bacteroides fragilis. The test can be described thus: microbe, parasite or virus in culture. It is filed as cell-based. The conditions noted are these: 37° C. for 20 hours; tested twice, first/second value where not matched. In a few lines: as §3

As to `CC[C@H](C)[C@H](NC(=O)[C@H](CC(C)C)NC(=O)[C@H](CCCCN)NC(=O)[C@@H](N)CC(C)C)C(=O)N[C@@H](Cc1ccccc1)C(=O)N[C@@H](CC(C)C)C(=O)N[C@@H](Cc1c[nH]cn1)C(=O)N[C@@H](CCCNC(=N)N)C(=O)N[C@@H](CC(C)C)C(=O)N[C@@H](CCCCN)C(=O)N[C@@H](CCCNC(=N)N)C(=O)N[C@@H](CCSC)C(=O)N[C@@H](CCCNC(=N)N)C(=O)N[C@@H](CCCCN)C(=O)N[C@@H](CCCNC(=N)N)C(=O)N[C@@H](CC(C)C)C(=O)N[C@H](CCCCN)C(=O)N[C@@H](CCCNC(=N)N)C(=O)N[C@@H](CCCCN)C(N)=O` [SR-08] (H-LKLIFLHRLKRMRKRL[dK]RK-NH2; N-terminus assumed), in the test with Escherichia coli, the “MIC, Escherichia coli” value is 32/64. For the same compound, the “MIC, Staphylococcus epidermidis” value in test [1] is listed as 8> μg/mL. Further, the “Ability to form lumen (areas of formed lumina relative to negative control, FIG. 1)” value in test [2] was “showed an ability to form lumen at the tested concentrations”. Further, the “Number of days until complete healing (FIGS. 12 and 13)” value in test [3] is listed as “significantly smaller than the solvent control group”. The “MIC, Pseudomonas aeruginosa (clinical strain 6)” value in test [4] was 16/32. In addition, the “MIC, Salmonella typhimurium” value against Salmonella typhimurium is given as 8/4. Moreover, the “MIC, Clostridium ramosum” value in the test on Clostridium ramosum is listed as 32/16. Also, the “MIC, Bacteroides fragilis” value in the test with Bacteroides fragilis is recorded as 64/128.
